The target in assay [1] is T1, PR LBD (Homo sapiens, UniProt P06401).
T1 sequence (P06401 679-913 limits assumed): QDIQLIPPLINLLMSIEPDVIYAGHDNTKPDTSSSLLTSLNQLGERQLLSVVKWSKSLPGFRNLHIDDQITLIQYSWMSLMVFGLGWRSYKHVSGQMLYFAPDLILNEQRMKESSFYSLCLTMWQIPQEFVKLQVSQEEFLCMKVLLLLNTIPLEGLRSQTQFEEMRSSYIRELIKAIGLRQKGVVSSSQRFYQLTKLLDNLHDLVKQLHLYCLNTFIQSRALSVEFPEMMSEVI
As to the kind of experiment: Fluorescence polarization competition binding, PR LBD. On the technique in general: Polarisation of emitted light reports the rotation of a fluorescent probe.

Assay [2] deals with full-length AR and V7. Kind of assay: Probasin luciferase activity in LNCaP cells, full-length AR and V7. Conditions: I-EPI-002 2 μM, enzalutamide 5 μM; presence or absence of androgen.
Assay [3] deals with T2, GR (Homo sapiens, UniProt P04150).
T2 sequence (P04150 1-777): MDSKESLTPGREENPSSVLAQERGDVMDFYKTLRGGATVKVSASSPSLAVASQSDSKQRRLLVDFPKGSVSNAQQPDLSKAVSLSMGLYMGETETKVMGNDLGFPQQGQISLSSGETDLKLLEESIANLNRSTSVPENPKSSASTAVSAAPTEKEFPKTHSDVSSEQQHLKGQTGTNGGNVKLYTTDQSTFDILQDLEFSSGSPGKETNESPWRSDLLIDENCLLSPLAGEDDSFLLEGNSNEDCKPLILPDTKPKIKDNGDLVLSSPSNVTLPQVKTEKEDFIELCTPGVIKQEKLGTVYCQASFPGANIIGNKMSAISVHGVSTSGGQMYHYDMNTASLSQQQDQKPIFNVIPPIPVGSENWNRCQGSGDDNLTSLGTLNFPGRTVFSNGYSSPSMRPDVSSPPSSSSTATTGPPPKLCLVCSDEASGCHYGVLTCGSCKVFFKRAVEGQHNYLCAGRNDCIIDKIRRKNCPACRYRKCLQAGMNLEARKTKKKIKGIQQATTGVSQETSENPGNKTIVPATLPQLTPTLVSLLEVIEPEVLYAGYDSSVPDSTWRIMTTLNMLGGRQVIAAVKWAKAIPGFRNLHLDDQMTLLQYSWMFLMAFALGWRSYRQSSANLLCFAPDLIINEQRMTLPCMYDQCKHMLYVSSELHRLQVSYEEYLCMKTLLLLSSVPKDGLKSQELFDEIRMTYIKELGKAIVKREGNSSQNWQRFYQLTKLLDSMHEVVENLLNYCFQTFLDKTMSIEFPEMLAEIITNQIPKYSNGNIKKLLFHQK
As to the kind of experiment: GR transcriptional activity, GRE luciferase reporter. The format is cell-based. The settings on record: dexamethasone induced. A general note: In a reporter assay the amount or activity of a reporter protein is the signal.

The target in assay [4] is T3, GR LBD (Homo sapiens, UniProt P04150).
T3 sequence (P04150 524-758 limits assumed): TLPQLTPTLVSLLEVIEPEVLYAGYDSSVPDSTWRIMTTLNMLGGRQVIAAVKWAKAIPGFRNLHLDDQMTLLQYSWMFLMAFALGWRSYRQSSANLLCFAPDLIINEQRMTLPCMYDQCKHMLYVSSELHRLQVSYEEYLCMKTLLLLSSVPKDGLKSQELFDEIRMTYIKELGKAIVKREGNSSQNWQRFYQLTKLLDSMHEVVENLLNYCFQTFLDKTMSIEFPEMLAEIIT
Kind of assay: Fluorescence polarization competition binding, GR LBD.

For assay [5], the system named is LNCaP95 cells. As to the kind of experiment: Cell cycle analysis of LNCaP95 cells. It counts as cell-based, human. Conditions: I-EPI-002 5 μM, EPI-002 25 μM, 48 hours.
The subject of assay [6] is LNCaP95 cells. As to the kind of experiment: LNCaP95 proliferation, BrdU incorporation. The format is cell-based, human. The settings on record: I-EPI-002 2 μM, EPI-002 25 μM, enzalutamide 5 μM; 2 days. In general terms: Uptake of a labelled nucleoside into DNA is a usual measure of proliferation.

15-IodoEPI002 [I-EPI-002]: in assay [1], the “competition for ligand binding to PR LBD” value is “did not prevent ligand-binding”. The “inhibition of probasin luciferase activity, full-length AR with V7” value in assay [2] is “showed good inhibition”. Also, in assay [3], the “inhibition of GR transcriptional activity” value is “did not inhibit”. The “competition for ligand binding to GR LBD” value in assay [4] is “did not prevent ligand-binding”. In addition, the “decrease of S phase cells” value in assay [5] is at least 2 fold. In assay [6], the “effect on proliferation of LNCaP95 cells” value is “decreased proliferation”.
